Test results as given in patent US8399416B2, “Method of using heparin binding motif for treating asthma” (National Tsing Hua University, priority 2008, dated 2013).
Like-named read-outs stand apart in the source and are kept apart here.

Experiments:
[1] = tested on: Beas-2B cell surface heparan sulfate; conditions: 4° C. for 30 min
Experimental: Human Beas-2B cells were incubated with synthetic peptide (A, TAT; B, D1) at 4° C. for 30 min and then washed, fixed and analyzed. Synthetic peptide was identified with mouse anti-biotin monoclonal antibody and FITC-conjugated goat anti-mouse antibody. The distribution of synthetic peptide was examined by confocal microscopy.
To investigate whether the heparin binding QRRCK motif on EDN, corresponding to the “RWRCK” motif on ECP (SEQ ID NO: 8), was directly responsible for heparan sulfate binding on cell surface, Beas-2B cell-peptide binding was conducted using a synthetic peptide, D1 (SEQ ID NO: 4), and a positive control, TAT (SEQ ID NO: 6) purchased from Genemed Synthesis (South San Francisco, Calif.).

Beas-2B cells [2] = conditions: biotinylated peptides, 1 h at 4° C.
Experimental: FIG. 7. Synthetic peptides inhibit ECP binding to cells. A, Beas-2B cells were preincubated with peptides in RPMI 1640 medium for 30 min at 4° C. before incubation with MBP-ECP for an additional 1 h. After treatment, the cells were washed with PBS and fixed with PFA. The level of bound MBP-ECP was assessed by ELISA. The amount of MBP-ECP bound to cells without peptide treatment was set to 100%. The data shown are the means of triplicate experiments. B, Beas2-B cells were incubated with biotinylated peptides for 1 h at 4° C. The amount of peptides bound to cells was assessed as for FIG. 3.
To investigate whether the RWRCK (SEQ ID NO: 8) motif is directly responsible for heparin binding, cell ELISA was conducted using a synthetic peptide, C1 (SEQ ID NO: 3), along with a positive control peptide derived from HIV-TAT, TAT (SEQ ID NO: 6) (Vives, E., et al. (1997) The Journal of biological chemistry 272, 16010-16017; Ziegler, A. and Seelig, J. (2004) Biophysical journal 86, 254-263). […] Therefore, synthetic peptides with heparin binding activity may compete with ECP for cellular binding. Furthermore, the cell surface binding ability of peptides was tested using cell ELISA assay.

[3] = AMAC-labeled LMWH, increasing peptide concentrations, room temperature 15 min
Experimental: FIG. 9. FACE analysis of synthetic peptides. AMAC-labeled LMWH were incubated without or with increasing concentrations of C1, TAT, D1 and R1 peptides at room temperature for 15 min. Samples were loaded and separated by agarose gel electrophoresis as described for FIG. 2.
Synthetic heparin oligosaccharide (FIG. 1) (Lee, C. J., et al. (2004) J Am Chem Soc 126, 476-477), low molecular weight heparin (LMWH) and PI-88 (kindly provided by Progen Inc., Australia) were labeled with 2-aminoacridone (AMAC) as described (Calabro, A., et al. (2000) Glycobiology 10, 273-281). AMAC-oligosaccharide and proteins were incubated at room temperature for 15 min, loaded onto 1% gels and electrophoresed as described (Holmes, O., et al. (2007) J Mol Biol 367, 395-408).
In addition, because EDN contains a conventional heparin binding sequence, the corresponding peptide, D1 (SEQ ID NO: 4), was also synthesized and tested.

[4] = PBS buffer at 25° C.; HMWH 10-20 μM
Experimental: FIG. 11. Isothermal titration calorimetry of heparin-peptide interaction. The top panels show the differential power time course. Raw data for sequential 6-μl injections of each synthetic peptide in PBS buffer at 25° C. TAT (positive control), B, R1 (negative control), C, C1, and D, D1 into the sample cell containing 1.4 ml HMWH solution (10-20 μM). The total heat released in each injection is proportional to the area under the corresponding peak. […] The solid line represents a non-linear least squares of the reaction heat for the injection.

Beas-2B cell line [5] = experiment: MTT cytotoxicity assay of ECP; format: cell-based, human; conditions: 37° C. 48 h, read-out: IC50 for cytotoxic ECP
Experimental: FIG. 12. Cytotoxicity of wild-type and mutant ECP. Beas-2B cells were incubated with increasing concentrations of wild-type and mt1 ECP at 37° C. for 48 h, followed by the MTT assay. The error bars show standard deviation among triplicate experiments.
The inhibition of lymphocyte and mammalian cell growth by ECP has been reported (Fan, T. C., et al. (2007) Traffic 8, 1778-1795; Maeda, T., et al. (2002) European Journal of Biochemistry 269, 307-316). As a physiological test, the cytotoxicity of ECP mt1 was monitored by MTT assay. The effect of ECP on the cell growth was determined by a colorimetric assay using 3-(4,5-dimethylthiazol-2-yl)-2,5-diphenyltetrazolium bromide (MTT) (US Biological, MA, USA). Cells were plated in a 96-well plate (5000 cells/well) and incubated at 37° C. overnight. Each sample was incubated with the indicated concentration (1-100 μM) of ECP. Forty-eight hours after treatment with ECP, MTT was added, and cell growth was monitored at A570 to measure the mitochondrial-dependent formation of a colored product.

Beas-2B cells [6] = experiment: Cell ELISA of MBP-ECP and MBP-ECP mt1 binding to cells; format: cell-based, human; conditions: MBP-ECP mt1 relative to MBP-ECP; 1 h at 4° C.
Beas-2B cell line [7] = conditions: data taken from reference (Fan et al. 2007), read-out: IC50 for cytotoxic ECP; cited from earlier work

With NYQRRCKNQNK-biotin [D1] the “peptide binding to cell surface (confocal microscopy)” value [1] was “bound to Beas-2B cell surface heparan sulfate”, the “cell surface binding ability of peptides” value (Beas-2B cells [2]) was “bound to the cell surface” and the “interaction with LMWH (FACE)” value [3] was “bound heparin as tightly as C1”. For the same molecule, the “heat release on binding to HMWH (ITC)” value [4] was “exothermal reaction modes were clearly observed”.

B1: ECP mt1: ECP mutant with R34A/W35A/R36A/K38A substitutions (protein, UniProt P12724 28-160, looked up, variant R34A W35A R36A K38A)
Eosinophil cationic protein: RPPQFTRAQWFAIQHISLNPPRCTIAMRAINNYAAACANQNTFLRTTFANVVNVCGNQSIRCPHNRTLNNCHRSRFRVPLLHCDLINPGAQNISNCTYADRPGRRFYVVACDNRDPRDSPRYPVVPVHLDTTI
In the case of B1, the IC50 (Beas-2B cell line [5]) is reported as 38.5 µM and the cell-binding activity (Beas-2B cells [6]) is reported as 50%.

B2: ECP wt: Recombinant human eosinophil cationic protein with C-terminal His6 tag, expressed in E. coli (protein, UniProt P12724 28-160, looked up)
Eosinophil cationic protein: RPPQFTRAQWFAIQHISLNPPRCTIAMRAINNYRWRCKNQNTFLRTTFANVVNVCGNQSIRCPHNRTLNNCHRSRFRVPLLHCDLINPGAQNISNCTYADRPGRRFYVVACDNRDPRDSPRYPVVPVHLDTTI
modifications: C-terminal His6 tag
notes: Recombinant human eosinophil cationic protein with C-terminal His6 tag, expressed in E. coli
In the case of B2, the IC50 (Beas-2B cell line [7]) is given as 16.1 µM.
